Each structure is given as a SMILES string. Like-named read-outs stand apart in the source and are kept apart here. Where only a bound is given, the exact number is not on record here.

A word on the IC50: it is the concentration that gives 50% inhibition.

For the assay, the target named is LRRK2 (leucine-rich repeat kinase 2) (Homo sapiens (Human), UniProt Q5S007). Description: Inhibitory effect on LRRK2 in vitro (LANCE kinase assay). In kind it is biochemical. The procedure: The inhibitory effect of Compounds 1 to 62 on LRRK2 (leucine-rich repeat kinase 2) in vitro was measured. In the analysis of the results, IC50 values were calculated for a quantitative comparison of the in vitro activity.
After the compound was dissolved in 100% DMSO at 10 mM, it was serially diluted to the range of 1 μM to 10 μM using biochemical LRRK2 assay buffer (50 mM HEPES (4-(2-hydroxyethyl)-1-piperazineethanesulfonic acid) pH 7.5, 10 mM MgCl2, 1 mM EGTA (1,2-bis(o-aminophenoxy)ethane-N,N,N′,N′-tetraacetic acid), 2 mM DTT (dithiothreitol), and 0.01% TWEEN-20 (Aldrich)). Purified LRRK2 (CARNA BIOSCIENCES) was added to a black U-bottom 96-well microtiter plate containing 6 μl of the serially diluted compound, followed by incubation at room temperature for 30 minutes. For the kinase reaction, ATP and a substrate solution specific urea-polypeptide (ULIGHT™-poly TK, PerkinElimer) were added. The reaction was carried out at room temperature for 1 hour, and it was detected with an detection solution (brand name: LANCE™) containing EDTA. A LANCE detection solution containing europium-labeled antibody ([…] PT66) was added, followed by incubation at room temperature for 50 minutes, to terminate the kinase experiment. The phosphorylated substrate was detected by 665 nm emission measurement. IC50 values were calculated by a non-linear regression analysis using a Prism program (PRISM™ software) with reference to the absence of a kinase inhibitor.
As a comparative assay, a compound LRR2-IN-1, that known to be a reference compound for LRRK2 inhibitor, have also tested an inhibitory activity.

Where [1] appears, read: Table 1, class symbols, read-out: LRRK2 inhibition rate (IC50).
Where [2] appears, read: purified LRRK2, Table 6, read-out: IC50.

Sequence of LRRK2 (leucine-rich repeat kinase 2) (Q5S007 whole entry): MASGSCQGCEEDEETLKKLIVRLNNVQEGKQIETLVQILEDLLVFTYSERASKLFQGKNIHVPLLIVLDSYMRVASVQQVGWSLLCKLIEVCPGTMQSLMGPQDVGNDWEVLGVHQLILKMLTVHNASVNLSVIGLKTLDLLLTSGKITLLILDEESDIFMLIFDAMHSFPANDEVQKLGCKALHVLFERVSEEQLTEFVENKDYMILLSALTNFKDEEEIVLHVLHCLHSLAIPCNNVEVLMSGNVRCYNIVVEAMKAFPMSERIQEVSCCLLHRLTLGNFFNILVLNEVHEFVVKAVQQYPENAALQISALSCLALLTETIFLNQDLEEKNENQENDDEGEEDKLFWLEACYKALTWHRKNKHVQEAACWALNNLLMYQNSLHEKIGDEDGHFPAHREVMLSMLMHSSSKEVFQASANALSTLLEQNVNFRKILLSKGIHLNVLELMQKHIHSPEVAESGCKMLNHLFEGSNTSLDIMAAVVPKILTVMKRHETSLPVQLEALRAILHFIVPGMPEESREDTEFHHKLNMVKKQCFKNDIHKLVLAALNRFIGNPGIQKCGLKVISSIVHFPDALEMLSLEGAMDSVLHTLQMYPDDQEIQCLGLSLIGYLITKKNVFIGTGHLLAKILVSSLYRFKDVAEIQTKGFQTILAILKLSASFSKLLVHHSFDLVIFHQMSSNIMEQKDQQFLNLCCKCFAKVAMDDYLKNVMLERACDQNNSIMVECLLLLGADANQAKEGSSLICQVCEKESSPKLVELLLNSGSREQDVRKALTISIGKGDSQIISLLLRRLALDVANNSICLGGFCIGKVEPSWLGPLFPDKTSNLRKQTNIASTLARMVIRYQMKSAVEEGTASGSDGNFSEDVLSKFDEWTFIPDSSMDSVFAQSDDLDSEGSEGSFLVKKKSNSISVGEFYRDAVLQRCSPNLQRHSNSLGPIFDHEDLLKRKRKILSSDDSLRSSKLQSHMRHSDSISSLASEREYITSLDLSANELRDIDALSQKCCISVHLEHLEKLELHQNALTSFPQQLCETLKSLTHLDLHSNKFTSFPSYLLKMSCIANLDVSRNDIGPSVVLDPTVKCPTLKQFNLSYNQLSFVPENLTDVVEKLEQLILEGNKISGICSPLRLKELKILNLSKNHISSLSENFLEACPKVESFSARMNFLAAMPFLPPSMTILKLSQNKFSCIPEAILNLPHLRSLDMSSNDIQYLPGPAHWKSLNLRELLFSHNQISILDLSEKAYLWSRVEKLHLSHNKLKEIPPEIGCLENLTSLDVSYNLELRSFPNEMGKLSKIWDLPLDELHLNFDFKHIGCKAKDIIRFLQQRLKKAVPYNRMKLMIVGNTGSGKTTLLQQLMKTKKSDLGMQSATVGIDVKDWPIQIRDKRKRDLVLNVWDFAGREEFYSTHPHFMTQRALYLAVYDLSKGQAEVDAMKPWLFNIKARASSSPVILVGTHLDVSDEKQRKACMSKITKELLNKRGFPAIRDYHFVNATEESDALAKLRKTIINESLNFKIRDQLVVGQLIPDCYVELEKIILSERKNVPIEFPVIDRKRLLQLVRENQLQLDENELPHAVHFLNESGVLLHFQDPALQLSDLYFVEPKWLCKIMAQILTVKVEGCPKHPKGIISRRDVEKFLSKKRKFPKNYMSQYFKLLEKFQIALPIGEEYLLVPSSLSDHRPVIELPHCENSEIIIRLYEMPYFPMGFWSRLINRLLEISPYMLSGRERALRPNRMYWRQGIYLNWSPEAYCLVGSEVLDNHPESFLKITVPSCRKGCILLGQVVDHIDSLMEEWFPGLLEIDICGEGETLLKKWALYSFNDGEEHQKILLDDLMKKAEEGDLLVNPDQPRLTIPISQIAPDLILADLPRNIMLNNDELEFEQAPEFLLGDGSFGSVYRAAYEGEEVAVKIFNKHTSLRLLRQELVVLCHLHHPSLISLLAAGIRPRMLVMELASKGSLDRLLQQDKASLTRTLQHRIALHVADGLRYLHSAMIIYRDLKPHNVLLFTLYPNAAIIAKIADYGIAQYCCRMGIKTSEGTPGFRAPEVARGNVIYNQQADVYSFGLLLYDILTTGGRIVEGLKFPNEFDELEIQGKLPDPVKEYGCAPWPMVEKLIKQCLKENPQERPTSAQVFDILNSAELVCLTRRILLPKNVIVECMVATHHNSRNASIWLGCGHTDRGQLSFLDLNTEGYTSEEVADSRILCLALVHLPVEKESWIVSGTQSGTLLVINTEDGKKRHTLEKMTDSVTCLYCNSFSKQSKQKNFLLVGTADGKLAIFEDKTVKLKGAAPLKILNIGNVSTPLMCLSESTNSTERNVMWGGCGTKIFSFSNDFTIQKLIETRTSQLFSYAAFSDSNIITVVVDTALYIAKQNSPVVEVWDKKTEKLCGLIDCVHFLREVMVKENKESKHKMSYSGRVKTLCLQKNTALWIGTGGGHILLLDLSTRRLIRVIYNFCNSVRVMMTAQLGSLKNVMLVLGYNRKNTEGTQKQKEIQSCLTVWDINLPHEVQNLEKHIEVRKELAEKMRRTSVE

As for `CCn1cc(Cl)c2cnc(Nc3cn([C@@H]4CCN(S(C)(=O)=O)C4)nc3Cl)nc21` [Compound 36, (R)-5-chloro-N-(3-chloro-1-(1-(methylsulfonyl)pyrrolidin-3-yl)-1H-pyrazol-4-yl)-7-ethyl-7H-pyrrolo[2,3-d]pyrimidin-2-amine], under setting [1], the IC50 lay in the range of 0.01 to 0.1 µM.

As to `CCn1nc(Cl)c2cnc(Nc3cn(C4CCN(C(=O)C5CC5)CC4)nc3Cl)nc21` [Compound 57, (4-(3-chloro-4-(3-chloro-1-ethyl-1H-pyrazolo[3,4-d]pyrimidin-6-ylamino)-1H-pyrazol-1-yl)piperidin-1-yl)(cyclopropyl)methanone], the concentration for half-maximal inhibition (IC50) by setting is: under setting [1], below 0.01 µM; under setting [2], 0.00722 µM.

Regarding `CCn1cc(Cl)c2cnc(Nc3cn(C4CCCN(C(=O)C5CC5)CC4)nc3Cl)nc21` (stereo not drawn) [Compound 43, (4-(3-chloro-4-(5-chloro-7-ethyl-7H-pyrrolo[2,3-d]pyrimidin-2-ylamino)-1H-pyrazol-1-yl)azepan-1-yl)(cyclopropyl)methanone], the IC50 under setting [1] was below 0.01 µM.

Turning to `Cn1cc(Cl)c2cnc(Nc3cnn(C4CCN(C5COC5)CC4)c3Cl)nc21` [Compound 27, 5-chloro-N-(5-chloro-1-(1-(oxetan-3-yl)piperidin-4-yl)-1H-pyrazol-4-yl)-7-methyl-7H-pyrrolo[2,3-d]pyrimidin-2-amine], the 50% inhibitory concentration (IC50) under setting [1] lay in the range of 0.01 to 0.1 µM.

Turning to `CCn1cc(Cl)c2cnc(Nc3cn(C4CCN(S(=O)(=O)C5CC5)CC4)nc3Cl)nc21` [Compound 35, 5-chloro-N-(3-chloro-1-(1-(cyclopropylsulfonyl)piperidin-4-yl)-1H-pyrazol-4-yl)-7-ethyl-7H-pyrrolo[2,3-d]pyrimidin-2-amine], the IC50 is below 0.01 µM under setting [1] and 0.00666 µM under setting [2].

Regarding `CCn1nc(Cl)c2cnc(Nc3cn(C4CCN(C(=O)C(C)(C)C)CC4)nc3Cl)nc21` [Compound 53, 1-(4-(3-chloro-4-(3-chloro-1-ethyl-1H-pyrazolo[3,4-d]pyrimidin-6-ylamino)-1H-pyrazol-1-yl)piperidin-1-yl)-2,2-dimethylpropane-1-one], the half-inhibitory concentration (IC50) under setting [1] is below 0.01 µM.

In the case of `CCn1nc(Cl)c2cnc(Nc3cn(C4CCN(C(C)=O)CC4)nc3Cl)nc21` [Compound 58, 1-(4-(3-chloro-4-(3-chloro-1-ethyl-1H-pyrazolo[3,4-d]pyrimidin-6-ylamino)-1H-pyrazol-1-yl)piperidin-1-yl)ethanone], the IC50 was below 0.01 µM under setting [1] and 0.00592 µM under setting [2].

In the case of `CCCCn1cc(Nc2ncc3c(Cl)cn(C)c3n2)c(C(F)(F)F)n1` [Compound 11, N-(1-butyl-3-(trifluoromethyl)-1H-pyrazol-4-yl)-5-chloro-7-methyl-7H-pyrrolo[2,3-d]pyrimidin-2-amine], under setting [1], the 50% inhibitory concentration (IC50) fell in the range of 1 to 10 µM.

Consider `COCCn1cc(Nc2ncc3c(Cl)cn(C)c3n2)c(C(F)(F)F)n1` [Compound 10, 5-chloro-N-(1-(2-methoxyethyl)-3-(trifluoromethyl)-1H-pyrazol-4-yl)-7-methyl-7H-pyrrolo[2,3-d]pyrimidin-2-amine], for which, under setting [1], the IC50 lay in the range of 0.1 to 1 µM.

Turning to `CCn1cc(Cl)c2cnc(Nc3cn(CC4CC4)nc3Cl)nc21` [Compound 13, 5-chloro-N-(3-chloro-1-(cyclopropylmethyl)-1H-pyrazol-4-yl)-7-ethyl-7H-pyrrolo[2,3-d]pyrimidin-2-amine], under setting [1], the IC50 lay within 0.01 to 0.1 µM.

Take `CCN1CCC(n2cc(Nc3ncc4c(Cl)cn(CC)c4n3)c(Cl)n2)CC1` [Compound 20, 5-chloro-N-(3-chloro-1-(1-ethylpiperidin-4-yl)-1H-pyrazol-4-yl)-7-ethyl-7H-pyrrolo[2,3-d]pyrimidin-2-amine]: the IC50 under setting [1] was in the range of 0.01 to 0.1 µM.

As for `CCn1cc(Cl)c2cnc(Nc3cnn(C4COC4)c3Cl)nc21` [Compound 16, 5-chloro-N-(5-chloro-1-(oxetan-3-yl)-1H-pyrazol-4-yl)-7-ethyl-7H-pyrrolo[2,3-d]pyrimidin-2-amine], the IC50 under setting [1] was 0.01 to 0.1 µM.
